Source: BindingDB's records for patent US20240270732 (Chengdu Biobel Biotechnology Co., 2024)

Target: T1, Receptor-interacting serine/threonine-protein kinase 1 (Homo sapiens, UniProt Q13546)
T1 sequence (Q13546 whole entry): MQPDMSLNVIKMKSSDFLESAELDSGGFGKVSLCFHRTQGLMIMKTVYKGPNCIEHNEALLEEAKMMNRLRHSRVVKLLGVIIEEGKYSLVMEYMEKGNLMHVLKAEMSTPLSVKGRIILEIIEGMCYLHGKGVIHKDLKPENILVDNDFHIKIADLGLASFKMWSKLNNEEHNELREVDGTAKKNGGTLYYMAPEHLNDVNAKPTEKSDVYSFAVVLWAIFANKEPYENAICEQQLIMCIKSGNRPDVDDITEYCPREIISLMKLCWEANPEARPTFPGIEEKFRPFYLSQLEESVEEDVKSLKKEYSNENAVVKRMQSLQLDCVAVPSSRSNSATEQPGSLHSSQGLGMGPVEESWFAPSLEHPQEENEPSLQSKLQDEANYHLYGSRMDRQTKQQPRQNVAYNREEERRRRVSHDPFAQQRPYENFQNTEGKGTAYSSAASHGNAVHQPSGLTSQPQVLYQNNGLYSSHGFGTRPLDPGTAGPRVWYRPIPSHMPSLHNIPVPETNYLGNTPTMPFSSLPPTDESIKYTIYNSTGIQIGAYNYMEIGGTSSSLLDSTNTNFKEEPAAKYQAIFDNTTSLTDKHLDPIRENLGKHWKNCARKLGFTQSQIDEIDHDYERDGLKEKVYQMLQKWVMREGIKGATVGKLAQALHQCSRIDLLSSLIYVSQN
Assay: Inhibitory Activity Assay
How it was run: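 Compounds were titrated 22-point, 1:1.5 from 2 μM top concentration, in 50 mM Hepes pH 7.5, 50 mM NaCl, 30 mM MgCl2, 1 mM DTT, 0.02% CHAPS, 0.5 mg/mL BSA. After the kinase reaction, ADP-Glo reagent was added for 1 h at room temperature, then detection solution for 30 min, and luminescence was read.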

Row | IC50 | SMILES
1 | 4.92 nM | CN1C(=O)[C@@H](NC(=O)c2ncn(Cc3ccccc3)n2)COc2ccc(CCCN3CCN(CCCc4ccc5c(c4)N(C)C(=O)[C@@H](NC(=O)c4ncn(Cc6ccccc6)n4)CO5)CC3)cc21 [US20240270732, Compound I-121]
2 | 3.18 nM | C[C@H]1Oc2ccc(CCCN3CCN(CCCc4ccc5c(c4)N(C)C(=O)[C@@H](NC(=O)c4ncn(Cc6ccccc6)n4)[C@@H](C)O5)CC3)cc2N(C)C(=O)[C@H]1NC(=O)c1ncn(Cc2ccccc2)n1 [US20240270732, Compound I-122]
3 | 3.17 nM | CN1C(=O)[C@@H](NC(=O)c2n[nH]c(Cc3ccccc3)n2)COc2ccc(CCCN3CCN(CCCc4ccc5c(c4)N(C)C(=O)[C@@H](NC(=O)c4n[nH]c(Cc6ccccc6)n4)CO5)CC3)cc21 [US20240270732, Compound I-123]
4 | 4.84 nM | C[C@H]1Oc2ccc(CCCN3CCN(CCCc4ccc5c(c4)N(C)C(=O)[C@@H](NC(=O)c4n[nH]c(Cc6ccccc6)n4)[C@@H](C)O5)CC3)cc2N(C)C(=O)[C@H]1NC(=O)c1n[nH]c(Cc2ccccc2)n1 [US20240270732, Compound I-124]
